Test [1] concerns LNCaP (human prostate carcinoma). Description: Cell proliferation (MTS) assay, LNCaP. Type of test: cell-based. Particulars: three days treatment; for IC50: Homo sapiens, LNCaP, 72 h. On the procedure: (§1) Results of cell proliferation assays for exemplary compounds are shown below in Tables 1 and 2. Cell lines LNCaP (human prostate carcinoma), MDA468 (human breast cancer cell), MDA435 (human breast adenocarcinoma), and DU145 (human prostate carcinoma[…]) were purchased from American Type Culture Collection (ATCC) (Rockville, Md.). Cells were cultured in RPMI Medium 1640 containing 10% fetal bovine serum (FBS) in a 37° C. incubator containing 5% CO2. All cell culture reagents were purchased from Gibco-BRL (Grand Island, N.Y.). Cells were plated in 96-well culture plates at about 3000 cells per well. One day following plating, compounds or vehicle controls (buffer only) were added to cells. Proliferation assays were performed three days post initiation of treatment.
(§2) For a non-radioactive cell proliferation assay, viable cell densities are determined by measuring metabolic conversion (by viable cells) of the dye MTS tatrazolium dye, a cell proliferation assay known by one of skill in the art (MTS assay), a previously established cell proliferation assay. The assay is performed using an assay kit (Promega Corp., Madison, Wis.). The assay plates are incubated for 1-2 hours, and the results are read in a 96-well format plate reader by measuring absorbance at 490 nm. Effect of each compound is calculated as a percentage of control cell growth obtained from vehicle-treated cells grown in the same plate.

Test [2] deals with phosphor-AKT (S473) in Rat1 cells. Description: Rat1-IGF1 assay (IGF-1 induced phospho-AKT immunoblot). It counts as cell-based, rat. The note with it: Rattus norvegicus. On the procedure: Rat1 cells are plated in 6-well culture plates and serum-starved for 24 hours. Serum-starved cells are treated either with control vehicle or with various concentrations of 17-HWT for 2 hours, stimulated by IGF-1 (100 ng/mL) for 30 minutes. Total cellular lysates are prepared using NuPAGE-LDS sample buffer (Invitrogen), sonicated and then clarified by centrifugation. Equal amounts of proteins are subject to immunoblotting analysis using NuPAGE electrophoresis system and probed with phosphor-AKT (S473), total AKT antibodies (Signaling Technology).

Another test concerns the target T1, Human TOR (Homo sapiens, UniProt P42345).
T1 construct: FLAG
Put plainly: Human TOR (mTOR) kinase assay, DELFIA format. Type of test: biochemical. On the procedure:
The PI3K/AKT/TOR pathway is critical for cell proliferation, growth, survival, and angiogensis. Accordingly, compounds of the present invention may also be useful to inhibit TOR activity. Similar in vivo and in vitro assays to those described above with reference to PI3K can be used to determine the minimum concentration of compound sufficient to inhibit TOR. A human TOR assay and a Rat1-IGF1 assay as described in Examples 67 and 68, respectively was performed with some embodiments of the invention. The results of these assays are shown below in Tables 1 and 2.
Human TOR assays (See Toral-Barza, et al. Biochem Biophys. Res. Commun. 2005 Jun. 24; 332(1):304-10) with purified enzyme are performed in 96-well plates by DELFIA format as follows. Enzymes are first diluted in kinase assay buffer (10 mM Hepes (pH 7.4), 50 mM NaCl, 50 mM b-glycerophosphate, 10 mM MnCl2, 0.5 mM DTT, 0.25 mM microcystin LR, and […] BSA). To each well, 12 mL of the diluted enzyme is mixed briefly with 0.5 mL test inhibitor or control vehicle dimethylsulfoxide (DMSO). The kinase reaction is initiated by adding 12.5 mL kinase assay buffer containing ATP and His6-S6K to give a final reaction volume of 25 mL containing 800 ng/mL FLAG-TOR, […] ATP and […] His6-S6K. The reaction plate is incubated for 2 hours (linear at 1-6 hours) at room temperature with gentle shaking and then terminated by adding 25 mL Stop buffer (20 mM Hepes (pH 7.4), 20 mM EDTA, 20 mM EGTA). The DELFIA detection of the phosphorylated (Thr-389) His6-S6K is performed at room temperature using a monoclonal anti-P(T389)-p70S6K antibody (1A5, Cell Signaling) labeled with Europium-N1-ITC (Eu) (10.4 Eu per antibody, PerkinElmer). The DELFIA Assay buffer and Enhancement solution can be purchased from PerkinElmer. 45 mL of the terminated kinase reaction mixture is transferred to a MaxiSorp plate (Nunc) containing 55 mL PBS. The His6-S6K is allowed to attach for 2 hours after which the wells are aspirated and washed once with PBS. 100 mL of DELFIA Assay buffer with 40 ng/mL Eu-P(T389)-S6K antibody is added. The antibody binding is continued for 1 hour with gentle agitation. The wells are then aspirated and washed 4 times with PBS containing 0.05% Tween-20 (PBST). […] of DELFIA Enhancement solution is added to each well and the plates are read in a PerkinElmer Victor model plate reader. Data obtained is used to calculate enzymatic activity and enzyme inhibition by potential inhibitors.

The test system of test [3] is DU145 (human prostate carcinoma/lymphocytic leukemia). Put plainly: Cell proliferation (MTS) assay, DU145. It counts as cell-based. Particulars: three days treatment; for IC50: Homo sapiens, DU-145, 72 h. On the procedure:
as §1, §2

Test [4] deals with MDA435 (human breast adenocarcinoma). Description: Cell proliferation (MTS) assay, MDA435. It counts as cell-based. Particulars: three days treatment; for IC50: Homo sapiens, MDA435, 72 h. On the procedure: as §1, §2
For test [5], the system named is MDA468 (human breast cancer cell). Put plainly: Cell proliferation (MTS) assay, MDA468. It counts as cell-based. The note with it: three days treatment; for IC50: Homo sapiens, 72 h. On the procedure:
as §1, §2

A further test deals with T2, PI3K.
T2 construct: PI3K FP IC50
Description: Fluorescence polarization assay for PI3K. It counts as biochemical. Particulars: for PI3K FP IC50: Table 1. On the procedure:
This assay is used to determine the IC50 of compounds of the present invention as it identifies inhibitors of PI3 kinase by measuring inhibition.
The assay is run by placing 5 μL of diluted enzyme per well, then 5 μL of diluted compound (or 9.5 μL enzyme then 0.5 μL compound in DMSO) is added and mixed. Then, 10 μL substrate is added to start the reaction. The samples are incubated 30-60 minutes, then the reaction is stopped by adding 20 μL stop/detector mix.
PI3K is diluted with reaction buffer (e.g., 5 μL or 7.5 μL PI3K into 620 μL reaction buffer), and 5 μL of diluted enzyme is used per well. 5 μL reaction buffer or drug diluted in buffer (e.g., 4 μL/100 so final DMSO is 1% in reaction) is added to each. The samples are mixed by pipetting up and down. Alternatively, the enzyme can be diluted to 1215 μL. In this case 9.8 μL is added per well and 0.2 μL compound is added in DMSO.
To prepare 1 mL of substrate solution, 955 μL reaction buffer, 40 μL PIP2, and 2.5 μL ATP are mixed. 10 μL of substrate is added to each well to start the reaction.
Stop/detector mix is prepared by mixing 4 μL Red detector and 1.6 μL or 2.0 μL GST-GRP with 1 mL Stop buffer, which results in 10 nM probe and 70 nM GST-GRP). 20 μL of the stop/detector mix is added to each well to stop the reaction. The plates are read after 30-90 minutes keeping the red probe solutions dark.
For the zero time point, stop/detector mix is added to the enzyme just before adding substrate. For an extra control, stop/detector mix is added to buffer (no enzyme) and substrate or to just buffer (no substrate).
The recommended reaction has 0.06 μL per 20 μL (0.015 μg/20 μL) or 0.01125 μg/15 μL or 0.75 μg/mL.
Plates are read on machines with filters for Tamra. The units are mP with no enzyme controls reading app 190-220 mP units. Fully active enzyme reduces fluorescence polarization down to 70-100 mP after 30 minutes. An active cpd raises the mP values halfway to control or to 120-150 mP units.
A general note: In fluorescence polarisation assays a small probe gives low polarisation when free and higher when bound to something large.

Values after ≈ are worked out from the molar mass of the structure shown. A value given as a limit tells only on which side of the number the result lay.

For `COC[C@H]1OC(=O)/C(=C/N(C)CCCN(C)C)C2=C(O)C(=O)C3=C([C@H](OC(C)=O)C[C@@]4(C)C3CC[C@@H]4O)[C@]21C` (stereo partly drawn) [Compound 5, (1E,4S,4aR,5R,6aS,7S)-1-{[[3-(dimethylamino)propyl](methyl)amino]methylene}-7,11-dihydroxy-4-(methoxymethyl)-4a,6a-dimethyl-2,10-dioxo-1,2,4,4a,5,6,6a,7,8,9,9a,10-dodecahydroindeno[4,5-h]isochromen-5-yl acetate], the IC50 (in general, the midpoint of a concentration-inhibition curve) is 0.4 mg/L in test [1] (Table 1); 0.28 mg/L in test [1] (Table 2); 0.02 mg/L in test [2] (Table 1); 2.56 µM against Human TOR (Table 1); 1.28 µM against Human TOR (Table 2); 10 mg/L in test [3] (Table 1). Also, the half-inhibitory concentration (IC50) in test [3] (Table 2) came to 9.5 mg/L; in test [4] (Table 1) it was 15 mg/L; in test [4] (Table 2), 8.2 mg/L; in test [5] (Table 1) it was 1.8 mg/L; in test [5] (Table 2), 2 mg/L.

As for `COC[C@H]1OC(=O)/C(=C/N2CCN(C3CCCCC3)CC2)C2=C(O)C(=O)C3=C([C@H](OC(C)=O)C[C@@]4(C)C3CC[C@@H]4O)[C@]21C` (stereo partly drawn) [Compound 7, (1E,4S,4aR,5R,6aS,7S)-1-[(4-cyclohexylpiperazin-1-yl)methylene]-7,11-dihydroxy-4-(methoxymethyl)-4a,6a-dimethyl-2,10-dioxo-1,2,4,4a,5,6,6a,7,8,9,9a,10-dodecahydroindeno[4,5-h]isochromen-5-yl acetate], the half-maximal inhibitory concentration (IC50) in test [1] (Table 1) is 0.88 mg/L; in test [2] (Table 1) it was 0.02 mg/L; on Human TOR (Table 1), 0.818 µM; in test [3] (Table 1), above 15 mg/L; in test [4] (Table 1), above 15 mg/L; in test [5] (Table 1), 2 mg/L.

Consider `COC[C@H]1OC(=O)/C(=C\NCCOCCOCCNC(=O)CCCC[C@H]2SC[C@H]3NC(=O)N[C@H]32)C2=C(O)C(=O)C3=C([C@H](OC(C)=O)C[C@@]4(C)C3CC[C@@H]4O)[C@]21C` (stereo partly drawn) [Compound 51, (1Z,4S,4aR,5R,6aS,7S)-7,11-dihydroxy-4-(methoxymethyl)-4a,6a-dimethyl-2,10-dioxo-1-{12-oxo-16-[(3aR,4R,6aS)-2-oxohexahydro-1H-thieno[3,4-d]imidazol-4-yl]-5,8-dioxa-2,11-diazahexadec-1-ylidene}-1,2,4,4a,5,6,6a,7,8,9,9a,10-dodecahydroindeno[4,5-h]isochromen-5-yl acetate], for which the IC50 in test [1] (Table 2) was 2.8 mg/L; in test [2] (Table 2), above 0.2 mg/L; in test [5] (Table 2) it was 30 mg/L.

Turning to `CCCCSC=C1C(=O)OC(COC)C2(C)C1=C(O)C(=O)C1=C2C(OC(C)=O)CC2(C)C(O)CCC12` (stereo not shown) [Compound 52, Acetic acid 4-butylsulfanylmethylene-6,17-dihydroxy-1-methoxymethyl-10,13-dimethyl-3,7-dioxo-1,3,4,7,10,11,12,13,14,15,16,17-dodecahydro-2-oxa-cyclopenta[a]phenanthren-11-yl ester], the concentration for half-maximal inhibition (IC50) was 0.25 mg/L (≈ 0.48 µM) in test [1] (Table 1), 2.5 µM against Human TOR (Table 1) and 3.85 mg/L (≈ 7.39 µM) in test [5] (Table 1). In addition, in the test on PI3K, the “PI3K FP IC50” value turned out to be 0.043 mg/L.

With `COC[C@H]1OC(=O)/C(=C/N(C)CCCN(C)C)C2=C(O)C(=O)C3=C([C@H](O)C[C@@]4(C)C3CC[C@@H]4O)[C@]21C` (stereo partly drawn) [Compound 60, (1E,4S,4aR,5R,6aS,7S)-1-{[[3-(dimethylamino)propyl](methyl)amino]methylene}-5,7,11-trihydroxy-4-(methoxymethyl)-4a,6a-dimethyl-4a,5,6,6a,7,8,9,9a-octahydroindeno[4,5-h]isochromene-2,10(1H,4H)-dione], the 50% inhibitory concentration (IC50) is 0.33 mg/L (≈ 0.654 µM) in test [1] (Table 2), 0.396 µM at Human TOR (Table 2), 0.007 µM with PI3K (Table 2) and 2 mg/L (≈ 3.96 µM) in test [5] (Table 2).

In the case of “(1E,4S,4aR,5R,6aS,7S)-1-[(diallylamino)methylene]-7-(formyloxy)-11-hydroxy-4-(methoxymethyl)-4a,6a-dimethyl-2,10-dioxo-1,2,4,4a,5,6,6a,7,8,9,9a,10-dodecahydroindeno[4,5-h]isochromen-5-yl acetate [Compound 17]”, the “LNCaP IC50” value in test [1] (Table 1) is 0.14 mg/L. Further, the “TOR IC50” value at Human TOR (Table 1) was 1.3 mg/L. For the same compound, in the test on PI3K, the “PI3K FP IC50” value turned out to be 0.607 mg/L. Further, in test [3] (Table 1), the “DU145 IC50” value amounted to 3 mg/L. Besides, the “MDA435 IC50” value in test [4] (Table 1) is 7 mg/L. In test [5] (Table 1), the “MDA468 IC50” value turned out to be 0.5 mg/L.

In the case of “(1E,4S,4aR,5R,6aS,7S)-7-(formyloxy)-11-hydroxy-4-(methoxymethyl)-4a,6a-dimethyl-2,10-dioxo-1-(pyrrolidin-1-ylmethylene)-1,2,4,4a,5,6,6a,7,8,9,9a,10-dodecahydroindeno[4,5-h]isochromen-5-yl acetate [Compound 16]”, the “LNCaP IC50” value in test [1] (Table 1) was determined as 0.08 mg/L. Besides, the “TOR IC50” value on Human TOR (Table 1) amounted to 8 mg/L. In the test with PI3K, the “PI3K FP IC50” value is 1.994 mg/L. The “DU145 IC50” value in test [3] (Table 1) came out at 1.3 mg/L. Also, in test [4] (Table 1), the “MDA435 IC50” value was determined as 5.5 mg/L. Also, the “MDA468 IC50” value in test [5] (Table 1) was found to be 0.28 mg/L.

The values above are taken from patent publication US7666901B2, “Analogs of 17-hydroxywortmannin as PI3K inhibitors” (Wyeth, priority 2004, dated 2010).
